Assay results published in BindingDB's records for doi:10.7270/Q2Z899VD (Burnham Center For Chemical Genomics, 2010).

Target: T1, Nucleotide-binding oligomerization domain-containing protein 1 (Homo sapiens, UniProt Q9Y239)
T1 sequence (Q9Y239 whole entry): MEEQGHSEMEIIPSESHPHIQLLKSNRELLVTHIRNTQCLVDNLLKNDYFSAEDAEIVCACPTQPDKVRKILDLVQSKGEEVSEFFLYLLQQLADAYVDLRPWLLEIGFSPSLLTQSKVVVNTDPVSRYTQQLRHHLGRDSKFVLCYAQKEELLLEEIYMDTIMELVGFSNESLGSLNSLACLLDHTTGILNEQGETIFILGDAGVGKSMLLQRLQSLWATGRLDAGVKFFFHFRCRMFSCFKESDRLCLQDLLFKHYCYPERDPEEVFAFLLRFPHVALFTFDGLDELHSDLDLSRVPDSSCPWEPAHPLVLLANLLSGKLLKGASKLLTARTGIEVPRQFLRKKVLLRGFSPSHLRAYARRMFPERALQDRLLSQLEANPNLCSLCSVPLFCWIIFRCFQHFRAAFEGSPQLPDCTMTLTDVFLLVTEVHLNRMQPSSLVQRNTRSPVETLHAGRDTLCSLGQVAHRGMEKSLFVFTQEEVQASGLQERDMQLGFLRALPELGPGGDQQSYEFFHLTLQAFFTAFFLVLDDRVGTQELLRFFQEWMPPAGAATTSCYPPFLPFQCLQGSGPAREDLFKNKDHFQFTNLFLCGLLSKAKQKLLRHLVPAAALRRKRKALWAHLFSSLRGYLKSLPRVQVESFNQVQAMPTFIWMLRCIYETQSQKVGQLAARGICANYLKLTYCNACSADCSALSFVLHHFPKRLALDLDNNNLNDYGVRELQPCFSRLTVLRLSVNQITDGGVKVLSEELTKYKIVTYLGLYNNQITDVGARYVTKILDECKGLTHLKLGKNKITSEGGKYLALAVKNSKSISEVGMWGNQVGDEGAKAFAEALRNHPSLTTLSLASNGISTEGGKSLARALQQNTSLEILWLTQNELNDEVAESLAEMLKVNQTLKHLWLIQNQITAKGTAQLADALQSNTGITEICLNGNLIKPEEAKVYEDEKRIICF
Assay: NOD1 signaling inhibitors, SAR follow-up, revised (AID 2333)

In the case of `Cc1ccc(C)c(SCC(=O)OCC(=O)C(C#N)c2nc3ccccc3[nH]2)c1` (stereo not drawn) [MLS000392255], the IC50 is reported as greater than 20 µM.
Compound `Cc1cc(Br)ccc1SCC(=O)OCC(=O)C(C#N)c1nc2ccccc2[nH]1` (stereo not drawn) [2-[(4-bromo-2-methylphenyl)thio]acetic acid [3-cyano-3-(1,3-dihydrobenzimidazol-2-ylidene)-2-oxopropyl] ester] has an IC50 greater than 20 µM.
For `Cc1cc(SCC(=O)OCC(=O)C(C#N)c2nc3ccccc3[nH]2)c(C)cc1Br` (stereo not drawn), the IC50 was greater than 20 µM.
`N#CC(C(=O)COC(=O)CSc1ccc2ccccc2c1)c1nc2ccccc2[nH]1` (stereo not drawn) [[3-cyano-3-(1,3-dihydrobenzimidazol-2-ylidene)-2-oxopropyl] 2-naphthalen-2-ylsulfanylacetate] was tested, and the IC50 was greater than 20 µM.
For `N#CC(C(=O)COC(=O)CSc1ccc(Cl)cc1)c1nc2ccccc2[nH]1` (stereo not drawn) [MLS-0208254.0001], the IC50 was greater than 20 µM.
`CCCOC1=CC(=O)C(C=NNC(=S)Nc2ccccc2[N+](=O)[O-])C=C1` (stereo not drawn) [1-(2-nitrophenyl)-3-[[(E)-(6-oxo-4-propoxy-1-cyclohexa-2,4-dienylidene)methyl]amino]thiourea] gave an IC50 of 7.73 µM.
In the case of `Cc1ccc(O)c(/N=C/C2=CC(Cc3ccccc3)C=C([N+](=O)[O-])C2=O)c1` (stereo not drawn) [(6E)-6-[[(5-methyl-2-oxidanyl-phenyl)amino]methylidene]-2-nitro-4-(phenylmethyl)cyclohexa-2,4-dien-1-one], the IC50 is reported as greater than 20 µM.
`CCOC1=CC=CC(C=NNC(=S)Nc2ccccc2[N+](=O)[O-])C1=O` (stereo not drawn) [MLS-0270696.0001] gave an IC50 of 8.23 µM.
